{
  "source": "paper PMC5654082",
  "about": "(Malaria Journal, 2017)",
  "key": {"[1]": {"molecular_target": "T1, human OCT1 (Homo sapiens, UniProt O15245)", "T1 construct": "host or cells: HEK293, baculovirus transduction (CMV promoter), transient", "T1 sequence (O15245 1-554)": "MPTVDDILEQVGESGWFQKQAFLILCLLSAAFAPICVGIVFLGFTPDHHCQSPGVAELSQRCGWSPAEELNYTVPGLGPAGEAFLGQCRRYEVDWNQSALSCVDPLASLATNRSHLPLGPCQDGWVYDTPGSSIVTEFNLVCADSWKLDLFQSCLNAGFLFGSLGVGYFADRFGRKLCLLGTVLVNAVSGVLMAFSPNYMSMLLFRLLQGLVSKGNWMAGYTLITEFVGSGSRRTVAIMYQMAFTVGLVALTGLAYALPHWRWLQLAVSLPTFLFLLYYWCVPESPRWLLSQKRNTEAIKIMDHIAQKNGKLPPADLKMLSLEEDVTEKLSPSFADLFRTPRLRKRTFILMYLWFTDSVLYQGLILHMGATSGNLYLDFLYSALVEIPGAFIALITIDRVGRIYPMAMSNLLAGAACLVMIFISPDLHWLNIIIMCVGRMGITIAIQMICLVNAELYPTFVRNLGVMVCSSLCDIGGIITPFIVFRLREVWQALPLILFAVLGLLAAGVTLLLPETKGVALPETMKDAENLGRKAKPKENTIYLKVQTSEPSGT", "assay": "Inhibition of OCT1-mediated ASP uptake in transduced HEK293 cells", "assay_type": "cell-based", "conditions": "50 µM anti-malarial, 10 µM ASP, 10 min, 37 °C; relative to solvent control fixed at 100%", "method": "(§1) HEK293 cells were modified to transiently express (a combination of) human OCT1, OCT2, MATE1, MATE2-K, or eYFP. Briefly, cDNA of the respective genes was cloned downstream of a CMV promoter into a baculovirus, of which passage three was used to transduce HEK293 cells. These cells were seeded in poly-D-lysine coated 24- or 96-wells plates and grown in a 37 °C incubator at 5% CO2. Growth was initiated at ~ 25% confluency using 375 or 125 μL cell and complete medium (DMEM + GlutaMAX™-I supplemented with 10% fetal bovine serum) suspension per well, respectively. After 24 h, cells were transduced with 30 µL virus (10 µL virus + 20 µL complete medium in case of 96-wells plates) or 2 × 15 µL virus for cells that required simultaneous expression of two transporters. Finally, 195 µL sodium butyrate (45 µL for 96-wells plates) was added to a final concentration of 2 mM to enhance protein expression.\nAMO (10 mM), ASP (1 mM), CQ (10 mM), PQ (10 mM) and PG (10 mM) were dissolved in MilliQ water. ART (10 mM), ATO (10 mM), DHA (10 mM), LUM (10 mM), MQ (10 mM), NMQ (20 mM), PYR (10 mM), QN (10 mM) were dissolved in DMSO. All compound stocks were stored at − 20 °C. Inhibition of OCT1- or OCT2-mediated ASP uptake by anti-malarials was performed in poly-D-lysine coated 96-wells plates 2 or 3 days following HEK293 cell transduction. In short, cells were washed with 125 µL 37 °C HBSS containing 10 mM HEPES, pH 7.4. Then, a 50 µL mixture of ASP (10 µM) and anti-malarial compound (25, 50 or 100 µM) in HBSS buffer (pH 7.4) was added to each well and incubated for 10 min at 37 °C. ASP transport was stopped by washing with 125 µL ice-cold HBSS-HEPES buffer supplemented with 0.5% BSA. Following a second wash with 125 µL ice-cold HBSS-HEPES buffer, cells were lysed with 125 µL 1 M NaOH and ASP was excited at a wavelength of 485 nm and fluorescence was detected at an emission wavelength of 535 nm using the Victor X3 multimode plate reader.\nFor each compound, a range of seven concentrations was used to determine the concentration at which ASP uptake was inhibited half maximally (IC50). At least three independent experiments (4 for QN) were performed for each drug in triplicate as described above. Inhibition curves were plotted by nonlinear regression analyses of the data using GraphPad Prism version 5.03. […] To generate the final dose–response inhibition curve per anti-malarial, percentage of uptake was averaged for each drug concentration per experiment and the resulting mean ± SEM corresponding to three or four independent experiments were plotted."}, "[2]": {"molecular_target": "MATE2-K (Homo sapiens, UniProt Q86VL8)", "sequence (Q86VL8 1-566 isoform Q86VL8-3)": "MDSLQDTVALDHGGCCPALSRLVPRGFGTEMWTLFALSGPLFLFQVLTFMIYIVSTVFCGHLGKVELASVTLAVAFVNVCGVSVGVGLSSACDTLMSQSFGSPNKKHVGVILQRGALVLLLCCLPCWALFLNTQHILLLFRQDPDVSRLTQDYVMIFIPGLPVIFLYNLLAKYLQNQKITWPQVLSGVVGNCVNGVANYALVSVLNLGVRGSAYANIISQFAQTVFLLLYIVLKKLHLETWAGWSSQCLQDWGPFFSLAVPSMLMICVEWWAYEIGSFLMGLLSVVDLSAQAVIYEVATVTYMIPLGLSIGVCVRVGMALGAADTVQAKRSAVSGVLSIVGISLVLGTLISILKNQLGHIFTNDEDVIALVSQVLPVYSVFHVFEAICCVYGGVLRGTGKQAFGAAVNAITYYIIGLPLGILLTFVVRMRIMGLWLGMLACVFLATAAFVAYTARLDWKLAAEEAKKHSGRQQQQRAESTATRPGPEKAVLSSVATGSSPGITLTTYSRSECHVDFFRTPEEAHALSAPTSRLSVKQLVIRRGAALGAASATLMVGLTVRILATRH", "assay": "Export assay in HEK293 cells co-transduced with OCT1 and MATE2-K", "assay_type": "cell-based", "parameters": "host or cells: HEK293, baculovirus transduction (CMV promoter), transient; co-transduced with human OCT1 in the export assay", "method": "as §1\nImport and export of PG and cycloguanil (CG) was assessed by single and double transduced HEK293 cells. In short, HEK293 cells seeded in 24-wells plates as described, were transduced separately with eYFP, OCT1, OCT2, MATE1 or MATE2-K, or with combinations of these viruses. Following the same procedure as for the cellular import assay described above, the import of 100 µM PG and CG was measured after 5 min incubation and data was plotted as mean pmol/mg/min ± SEM. For export (following OCT1 uptake) of 1 µM PG after 1 min of transport at pH 7.4, percentage of remaining cellular PG (compared to background) was plotted as mean ± SEM in GraphPad version 5.03. Significant reduction in uptake (i.e. export by MATEs) was determined using ln transformation and a one-way repeated measures ANOVA with Dunnet’s post test.\nAnti-malarial concentration in the cell lysates was quantified using an LC–MS/MS system consisting of a UPLC, a binary solvent manager, a vacuum degasser and an autosampler, coupled to a Xevo TQ-S micro triple quadrupole mass spectrometer. Liquid chromatographic separation of the samples (stored at 10 °C; injection volume of 10 µL) was performed at 40 °C using a HSS T3 analytical column (1.8 μm; 100 × 2.1 mm) coupled to a VanGuard HSS T3 pre-column (1.8 µm; 5 × 2.1 mm). […] Positive ion mode was used with selected reaction monitoring (SRM) for the quantitative analysis of AMO, ART, ATO, CQ, CG, DHA, LUM, MQ, PQ, PG, and QN. The peak area of the most abundant product ion was used for quantification."}},
  "note": "Counter-ions that a name gives are not always drawn.",
  "data": [
    {"compound": "[H]/N=C(\\N/C(=N/[H])Nc1ccc(Cl)cc1)NC(C)C", "note": "[Proguanil, proguanil hydrochloride]", "values": [
      {"measurement": "Relative ASP uptake (OCT1-mediated)", "setting": "[1]", "value": "60 ± 7", "unit": "%"},
      {"measurement": "Intracellular concentration, percentage of its initial value", "setting": "[2]; MATE2-K co-transduced with OCT1", "value": 56, "unit": "%"},
      {"measurement": "Relative decrease in uptake by MATE2-K", "setting": "[2]; OCT1/MATE2-K versus eYFP/OCT1 cells, 1 µM, 1 min", "value": 44, "unit": "%"},
      {"measurement": "Uptake, percentage of eYFP control cells", "setting": "[2]; cells expressing OCT1 and MATE2-K, 1 µM, 1 min, pH 7.4", "value": "470 ± 80", "unit": "%"},
      {"measurement": "Fraction exported by MATE2-K", "setting": "[2]; compared to eYFP/OCT1 transduced cells, 1 µM, 1 min", "value": "approximately 50%"}
    ]}
  ]
}
